Data taken from the NIST ThermoML archive (doi:10.1016/j.fluid.2016.02.009).

Settings: Liquid, Vibrating tube method

CC(C)OC(C)C [diisopropyl ether]
Settings | mass density [kg/m3]
283.15 K, 100 kPa | 733.83
283.15 K, 5000 kPa | 739.6
283.15 K, 10000 kPa | 744.9
283.15 K, 15000 kPa | 749.85
283.15 K, 20000 kPa | 754.49
283.15 K, 25000 kPa | 758.89
283.15 K, 30000 kPa | 763.08
283.15 K, 35000 kPa | 767.08
283.15 K, 40000 kPa | 770.91
283.15 K, 45000 kPa | 774.59
283.15 K, 50000 kPa | 778.13
283.15 K, 55000 kPa | 781.56
283.15 K, 60000 kPa | 784.88
283.15 K, 65000 kPa | 788.07
288.15 K, 100 kPa | 728.69
288.15 K, 5000 kPa | 734.61
288.15 K, 10000 kPa | 740.14
288.15 K, 15000 kPa | 745.3
288.15 K, 20000 kPa | 750.09
288.15 K, 25000 kPa | 754.61
288.15 K, 30000 kPa | 758.9
288.15 K, 35000 kPa | 763.01
288.15 K, 40000 kPa | 766.92
288.15 K, 45000 kPa | 770.68
288.15 K, 50000 kPa | 774.31
288.15 K, 55000 kPa | 777.77
288.15 K, 60000 kPa | 781.16
288.15 K, 65000 kPa | 784.42
293.15 K, 100 kPa | 723.51
293.15 K, 5000 kPa | 729.62
293.15 K, 10000 kPa | 735.37
293.15 K, 15000 kPa | 740.69
293.15 K, 20000 kPa | 745.62
293.15 K, 25000 kPa | 750.29
293.15 K, 30000 kPa | 754.71
293.15 K, 35000 kPa | 758.91
293.15 K, 40000 kPa | 762.93
293.15 K, 45000 kPa | 766.78
293.15 K, 50000 kPa | 770.48
293.15 K, 55000 kPa | 774.06
293.15 K, 60000 kPa | 777.49
293.15 K, 65000 kPa | 780.83
298.15 K, 100 kPa | 718.29
298.15 K, 5000 kPa | 724.67
298.15 K, 10000 kPa | 730.59
298.15 K, 15000 kPa | 736.05
298.15 K, 20000 kPa | 741.13
298.15 K, 25000 kPa | 745.92
298.15 K, 30000 kPa | 750.46
298.15 K, 35000 kPa | 754.77
298.15 K, 40000 kPa | 758.89
298.15 K, 45000 kPa | 762.82
298.15 K, 50000 kPa | 766.6
298.15 K, 55000 kPa | 770.25
298.15 K, 60000 kPa | 773.75
298.15 K, 65000 kPa | 777.14
303.15 K, 100 kPa | 713.03
303.15 K, 5000 kPa | 719.61
303.15 K, 10000 kPa | 725.79
303.15 K, 15000 kPa | 731.48
303.15 K, 20000 kPa | 736.81
303.15 K, 25000 kPa | 741.76
303.15 K, 30000 kPa | 746.43
303.15 K, 35000 kPa | 750.85
303.15 K, 40000 kPa | 755.09
303.15 K, 45000 kPa | 759.12
303.15 K, 50000 kPa | 763
303.15 K, 55000 kPa | 766.7
303.15 K, 60000 kPa | 770.24
303.15 K, 65000 kPa | 773.7
308.15 K, 100 kPa | 707.73
308.15 K, 5000 kPa | 714.61
308.15 K, 10000 kPa | 720.99
308.15 K, 15000 kPa | 726.79
308.15 K, 20000 kPa | 732.2
308.15 K, 25000 kPa | 737.29
308.15 K, 30000 kPa | 742.07
308.15 K, 35000 kPa | 746.63
308.15 K, 40000 kPa | 750.94
308.15 K, 45000 kPa | 755.05
308.15 K, 50000 kPa | 759.01
308.15 K, 55000 kPa | 762.79
308.15 K, 60000 kPa | 766.45
308.15 K, 65000 kPa | 769.97
313.15 K, 100 kPa | 702.38
313.15 K, 5000 kPa | 709.64
313.15 K, 10000 kPa | 716.16
313.15 K, 15000 kPa | 722.17
313.15 K, 20000 kPa | 727.77
313.15 K, 25000 kPa | 732.97
313.15 K, 30000 kPa | 737.92
313.15 K, 35000 kPa | 742.55
313.15 K, 40000 kPa | 746.98
313.15 K, 45000 kPa | 751.2
313.15 K, 50000 kPa | 755.21
313.15 K, 55000 kPa | 759.09
313.15 K, 60000 kPa | 762.83
313.15 K, 65000 kPa | 766.39
318.15 K, 100 kPa | 697.07
318.15 K, 5000 kPa | 704.53
318.15 K, 10000 kPa | 711.3
318.15 K, 15000 kPa | 717.51
318.15 K, 20000 kPa | 723.27
318.15 K, 25000 kPa | 728.67
318.15 K, 30000 kPa | 733.74
318.15 K, 35000 kPa | 738.49
318.15 K, 40000 kPa | 743.01
318.15 K, 45000 kPa | 747.34
318.15 K, 50000 kPa | 751.47
318.15 K, 55000 kPa | 755.41
318.15 K, 60000 kPa | 759.21
318.15 K, 65000 kPa | 762.85
323.15 K, 100 kPa | 691.61
323.15 K, 5000 kPa | 699.42
323.15 K, 10000 kPa | 706.46
323.15 K, 15000 kPa | 712.89
323.15 K, 20000 kPa | 718.83
323.15 K, 25000 kPa | 724.38
323.15 K, 30000 kPa | 729.58
323.15 K, 35000 kPa | 734.45
323.15 K, 40000 kPa | 739.08
323.15 K, 45000 kPa | 743.5
323.15 K, 50000 kPa | 747.72
323.15 K, 55000 kPa | 751.72
323.15 K, 60000 kPa | 755.59
323.15 K, 65000 kPa | 759.26
328.15 K, 100 kPa | 686.17
328.15 K, 5000 kPa | 694.18
328.15 K, 10000 kPa | 701.52
328.15 K, 15000 kPa | 708.19
328.15 K, 20000 kPa | 714.34
328.15 K, 25000 kPa | 720.04
328.15 K, 30000 kPa | 725.37
328.15 K, 35000 kPa | 730.4
328.15 K, 40000 kPa | 735.15
328.15 K, 45000 kPa | 739.67
328.15 K, 50000 kPa | 743.94
328.15 K, 55000 kPa | 748.05
328.15 K, 60000 kPa | 751.94
328.15 K, 65000 kPa | 755.64
333.15 K, 100 kPa | 681
333.15 K, 5000 kPa | 688.97
333.15 K, 10000 kPa | 696.58
333.15 K, 15000 kPa | 703.52
333.15 K, 20000 kPa | 709.85
333.15 K, 25000 kPa | 715.73
333.15 K, 30000 kPa | 721.21
333.15 K, 35000 kPa | 726.36
333.15 K, 40000 kPa | 731.23
333.15 K, 45000 kPa | 735.85
333.15 K, 50000 kPa | 740.18
333.15 K, 55000 kPa | 744.38
333.15 K, 60000 kPa | 748.24
333.15 K, 65000 kPa | 752.02
